Patent US11917960B2, “Methods to improve genetic transformation of sorghum” (Commonwealth Scientific and Industrial Research Organisation, priority 2016, dated 2024)
Marks after values point to notes of the source that are not given here.

What was measured:
Assay type in all cases: cell-based, Sorghum bicolor L
[1] = test system: DEC tissues/somatic embryos; test: Sensitivity of DEC tissues/somatic embryos to Geneticin; conditions: for Green DEC tissue survival (%): CIM + 1 mg/l LA, 6 weeks culture
Method: The experiment was carried out using 6 weeks-old uniform, healthy green-coloured DEC tissues about 5 mm in size and which contained some somatic embryos, produced after culturing on CIM containing 1 mg/l LA. The Geneticin levels used were 0, 15, 25, 35 and 45 mg/L, respectively. Three replicates each of 15 green DEC tissue pieces per plate were used for each concentration of Geneticin tested. The tissues were cultured for 6 weeks, being subcultured every two weeks onto the same medium, including the same Geneticin concentrations.
After 6 weeks of culture, the number of green DEC tissues that had survived was counted.
DEC tissues (about 5 mm) began to display geneticin stress symptoms on selective callus induction media (CIM with geneticin) within 3 weeks of culture. […] Very few calli (2-6) survived with dead patches. On this basis, geneticin at a final concentration of 25 mg/i was used in the callus induction media for 3 cycles (2 weeks each) and then increased to 30 mg/i for one cycle in shoot induction media (Table 6). Different concentrations of geneticin in CIM and SIM was deemed optimal in preventing shoot regeneration from non-transformed callus.

immature embryos (IEs) [2] = test: DEC tissue induction from immature embryos on CIM with or without LA; conditions: for Green tissue induction frequency: CIM + 1 mg/l LA, 6 weeks culture, mean ± SD, frequency calculated as a percentage, in %
Method: Plants of the grain sorghum of the inbred cultivar TX-430 (Miller 1984) were grown in a plant growth chamber (Conviron, PGC-20 flex) at 28±1° C. “day” temperature and 20±1° C. “night” temperature, with a. 16 hr photoperiod at a light intensity during the “day” of 900-1000 LUX. Panicles were covered with white translucent paper bags before flowering. Immature embryos were harvested from panicles 12-15 days after anthesis. Panicles were washed several times with water and developing seeds that were uniform in size were isolated and surface-sterilized using 20% commercial bleach mixed with 0.1% Tween-20 for 15-20 min. They were then washed with sterile distilled water 3 times each for 20 min, and blotted dry in a laminar flow hood. Immature embryos (IEs) ranging from 1.4 to 2.5 mm in length were aseptically isolated in the laminar flow hood and used as the starting tissue for preparation of green regenerative tissue.
The isolated IEs ranging from 1.4 to 2.5 mm in length were placed onto callus induction media (CIM) of various compositions with their scutellum facing upward. CIM modified to improve callus quality and induction frequency from immature embryos, as well as callus regeneration media, included α-Lipoic acid (1 to 5 mg/1), Melatonin (5 to 10 mg/l) and 2-Aminoidan-2-phosphonic acid HCl (1 to 2 mg/l) unless otherwise stated. For the development of green tissue, immature embryos were incubated under fluorescent light of approximately 45-50 μmol s^−1 m^−2 (16 h/day) in a tissue culture room at 24±2° C. After three days of culture, the root and shoot poles of the immature embryos were aseptically separated and re-inoculated on to the same media (CIM) and maintained under the same conditions as described above. They were subcultured every two weeks for 6 weeks by chopping the callus into 2-3 mm portions, re-inoculating on to the same media (CIM) and maintaining under the same conditions described above, after which time the tissue cultures were evaluated for callus quality, callus induction efficiency and transformation efficiency. Callus induction frequency was calculated as the number of calli obtained (˜5 mm) over total number of immature embryos inoculated, as a percentage.
Sets of IEs ranging from 1.4 to 2.5 mm in length, each set isolated from one panicle, were aseptically isolated and cultured on CIM medium as described in Example 1. Some sets were cultured with the addition of α-Lipoic acid (LA, 1 mg/I or 5 mg/), others without, in order to determine the effect of this agent.
After 6 weeks of culture including subculture every two weeks onto the same medium, DEC tissue induction frequency and quality were evaluated. […]

immature embryos (IEs) [3] = test: DEC tissue yield on CIM with or without LA; conditions: for DEC yield in number ~5 mm each: CIM + 1 mg/l LA, 45 IEs
Text: After 4 to 12 weeks of culture, the number of DEC tissues obtained were counted. The number of DEC tissue pieces (˜5 mm) obtained at 12 weeks on CIM with LA was almost double when compared to using CIM without LA. Furthermore, the quality of the DEC tissues obtained on CIM with LA was improved compared to using the medium without LA.

DEC tissue of sorghum = test: Regeneration frequency and number of shoots per DEC tissue on SIM and SRM; conditions: for Number of shoots/callus / Regeneration frequency (%): LA in SIM and SRM, mean ± SD
Method: After six weeks on the CIM, some uniform green-coloured DEC tissue of about 4-7 mm diameter were transferred on to shoot induction medium (SIM) and cultured for another 2-3 weeks in order to begin organogenesis. Tissues which had induced shoot buds were then transferred to shoot regeneration medium (SRM) and again cultured for 2-3 weeks. Regenerability of DEC tissue of different ages (2-6 months from initiation) was also tested on SRM medium comprising different concentrations of BAP (0.5-1.0 mg/l) and TDZ (0.5-1.0 mg/l). The number of shoots were counted and the regeneration frequency (i.e. the number of shoots/DEC tissue) was calculated after 3 weeks culture on SRM (total of approximately 5 weeks culture inclusive of culture on SIM and SRM). Individual shoots approximately 2-3 cm in length were transferred to shoot out growth (SOG) medium and cultured for another 2-3 weeks. Well-developed shoots (4-5 cm in length), were carefully separated from the cluster and transferred to root induction medium (RIM) and cultured for 3-4 weeks. For shoot induction to complete plant regeneration, 50-60 μmol s^−1 m^−2 (16 h/day) fluorescent light was used in the tissue culture room at 24±2° C. Shoots (about 8 cm in length) with numerous (often 15-20) healthy looking roots were transferred to soil and grown to maturity in a PC2 glasshouse at […]. The optimized culture medium composition for the different stages of plant transformation from callus induction to plant regeneration from green tissue induced from immature embryos is presented in Table 1.
Uniform ready-to-use high quality green DEC tissues (5 mm) each with nodular structures induced on CIM medium with or without added LA were transferred to shoot induction medium (SIM) with and without LA and cultured for another 2-3 weeks. Tissues with induced shoot buds were then transferred to shoot regeneration medium (SRM) with or without added LA and again cultured for 2 weeks. Regenerability of green tissues of different ages (2-6 months from initiation) was tested on SRM medium containing different concentrations of BAP (0.5-1.0 mg/l) and TDZ (0.5-1.0 mg/l). Tissues including the shoot buds were again cultured on hormone free medium (SOG) with or without LA. The number of shoots was counted after 2 weeks of culture on SRM and the regeneration frequency (number of shoots/DEC tissue) calculated.

[4] = after 8 weeks on CIM with G25 and 35 mg/l

## CN[C@@H]1[C@@H](O)[C@@H](O[C@@H]2[C@@H](O)[C@H](O[C@H]3O[C@H]([C@@H](C)O)[C@@H](O)[C@H](O)[C@H]3N)[C@@H](N)C[C@H]2N)OC[C@]1(C)O [Geneticin]
[1]; Geneticin 15 mg/l
  Green DEC tissue survival (%): 80 ± 1.0%
[1]; Geneticin 25 mg/l
  Green DEC tissue survival (%): 4 ± 2.6%
[1]; Geneticin 35 mg/l
  Green DEC tissue survival (%): 2 ± 0.5%
[1]; Geneticin 45 mg/l
  Green DEC tissue survival (%): 0%
[1]; [4]
  Appearance of calli: most of the calli turned dark brown in colour with no signs of survival
  Number of calli survived with dead patches: 2-6
[1]; selective callus induction media (CIM with geneticin)
  Time until DEC tissues began to display geneticin stress symptoms: ≤ 3 weeks

## O=C(O)CCCCC1CCSS1 (stereo not drawn) [LA, α-Lipoic acid]
Immature embryos (IEs) [2]; LA 5 mg/l in CIM
  DEC tissue induction at higher concentration of LA compared to 1 mg/ml: no significant further improvement
Immature embryos (IEs) [2]; immature embryo size 1.5-2 mm
  Green tissue induction frequency: 79.0 ± 6.5
Immature embryos (IEs) [2]; immature embryo size >2 mm
  Green tissue induction frequency: 59.0 ± 5.5
Immature embryos (IEs) [2]; small immature embryos (1.5-2 mm), significant at p<0.01
  DEC tissue induction frequency compared to CIM without LA: greater
Immature embryos (IEs) [3]; 12 weeks on CIM with LA
  Number of DEC tissue pieces (~5 mm) compared to CIM without LA: almost double
Immature embryos (IEs) [3]; culturing time 4 weeks
  DEC yield in number ~5 mm each: 36
Immature embryos (IEs) [3]; culturing time 6 weeks
  DEC yield in number ~5 mm each: 90
Immature embryos (IEs) [3]; culturing time 8 weeks
  DEC yield in number ~5 mm each: 120
Immature embryos (IEs) [3]; culturing time 10 weeks
  DEC yield in number ~5 mm each: 218
Immature embryos (IEs) [3]; culturing time 12 weeks
  DEC yield in number ~5 mm each: 825
DEC tissue of sorghum; DEC tissue age 2 months
  Number of shoots/callus: 40 ± 4.5^b
  Regeneration frequency (%): 97.6 ± 2.5%
DEC tissue of sorghum; DEC tissue age 4 months
  Number of shoots/callus: 40 ± 1.5^d
  Regeneration frequency (%): 97 ± 2.6 %
DEC tissue of sorghum; DEC tissue age 6 months
  Number of shoots/callus: 33 ± 2.5^f
  Regeneration frequency (%): 94.3 ± 2.0 %
DEC tissue of sorghum; LA included in both SIM and SRM, versus without LA
  Regeneration frequency and number of shoots/DEC tissue for different ages of DEC tissue: did not decline as much
